Reference: patent publication US7635693B2, “Methods for preventing and treating cancer using N-thiolated β-lactam compounds and analogs thereof” (University of South Florida, priority 2002, dated 2009)
Like-named read-outs stand apart in the source and are kept apart here.

How the values were obtained:
[1] = tested on: Jurkat T cells; assay: TUNEL assay (DNA strand breaks), Jurkat T cells; format: cell-based, human; conditions: 50 μM
Protocol: Terminal deoxynucleotidyl transferase-mediated UTP nick end labeling (TUNEL) was performed to determine the extent of DNA strand breaks. TUNEL assay was performed with an APO-Direct kit per the manufacturer's instructions. In brief, cells are fixed in 1% paraformaldehyde and ethanol at […] overnight and then permeabilized with Proteinase K. After permeabilization, Fluorescein conjugated dNTP's and TdT enzyme (Terminal Deoxynucleotidyl Transferase) are added to the cells. The TdT enzyme is then able to label free ends of DNA with Fluorescein conjugated dNTPs that could then be detected by flow cytometry.
The assay was performed following manufacturer's instruction using the APO-Direct kit. In brief, the harvested cells were fixed in 1% paraformaldehyde for 15 min on ice, washed with PBS, and then fixed again in 70% ethanol at −20° C. overnight. The cells were then incubated in DNA labeling solution (containing terminal deoxynucleotidyl transferase (TdT) enzyme, fluorescein-conjugated dUTP and reaction buffer) for 90 min at 37° C. After removing the DNA labeling solution by rinsing cells with Rinsing Buffer, the cells were incubated with the Propidium Iodide/RNase A solution, incubated for 30 min at room temperature in the dark, and then analyzed by flow cytometry within 3 h of staining.

[2] = tested on: LNCaP cells; conditions: LNCaP cells in soft agar, 50 μM, 21 day-incubation
Protocol: The soft agar assay was performed as described previously (Menter D G, Sabichi A L, Lippman S M., 2000, Selenium effects on prostate cell growth. Cancer Epidemiol Biomarkers Prev 9:1171-82) with a few modifications. In brief, in a six-well plate, a bottom feeder layer (0.6% agar) was prepared with DMEM media containing 10% fetal bovine serum, 100 units/ml penicillin, and 100 μg/ml streptomycin. […] Plates were incubated at 37° C. in 5% CO2 in a humidified incubator for three weeks. MTT (1 mg/ml) was added to each well and incubated overnight to allow complete formation of purple formazan crystals. The plates were then scanned and photographed, and the number of colonies was quantified by Quantity one v.4.0.3 software (Bio-Rad, Hercules, Calif.).

[3] = tested on: Jurkat T cells; conditions: for inhibition of 3H-thymidine incorporation: Jurkat T cells
Protocol: Incorporation of ^3H-thymidine into cells was measured as disclosed in Smith D M and Dou Q P, 2001, Green tea polyphenol epigallocatechin inhibits DNA replication and consequently induces leukemia cell apoptosis. Int J Mol Med 7:645-52. Jurkat T cells are pre-treated with a selected lactam for the indicated number of hours, followed by co-incubation with 2 μl/ml of [methyl-^3H]-thymidine [80 Ci (1.5 TBq)/mMol] at 37° C. for 2 hours. After harvesting, the cell pellet is washed with PBS, resuspended in 0.5 ml of PBS and collected on a glass microfiber filter. The filter is then washed with 5 ml/filter of PBS, followed by 5 ml/filter of ice-cold 0.1N NaOH and 5 ml/filter of ethanol. The filters containing fixed DNA are dried, and the remaining radioactivity is measured on a scintillation counter.

[4] = tested on: MDA-MB-231 cells; assay: MTT assay, MDA-MB-231; format: cell-based, human; conditions: MDA-MB-231, 50 μM, 24 hours
Protocol: MCF-7, MDA-MB-231, PC-3 and PCI-13 cells were grown to 50% confluency in a 24 well plate. […] A stock 5 mg/ml of MTT in serum-free media was then added to the cell cultures at a final concentration of 1 mg/ml, followed by a 3 hour incubation at 37° C. After cells crystallized, the media was removed and DMSO added to dissolve the metabolized MTT product. The absorbance was then measured on a Wallac Victor 1420 Multilabel counter at […].

[5] = tested on: Jurkat T cells; assay: Flow cytometry cell cycle distribution and sub-G1 population, Jurkat T cells; format: cell-based, human; conditions: 50 μM
Protocol: Cell Death Differ 5:1062-75. At each time point, cells are harvested, counted, and washed twice with PBS. Cells (5×10^6) are suspended in 0.5 ml PBS, fixed in 5 ml of 70% ethanol for at least 2 h at −20° C., centrifuged, resuspended again in 1 ml of propidium iodide staining solution (50 μg propidium iodide, 100 units RNase A and 1 mg glucose per ml PBS), and incubated at room temperature for 30 minutes. The cells are then analyzed with FACScan (Becton Dickinson Immunocytometry, CA), ModFit LT and WinMDI V.2.8 cell cycle analysis software (Verity Software; Topsham, Me.). The cell cycle distribution is shown as the percentage of cells containing G1, S, G2, and M DNA judged by propidium iodide staining. The apoptotic population is determined as the percentage of cells with sub-G1 (<G1) DNA content.

[6] = tested on: PARP; assay: PARP cleavage, Western blot, Jurkat T cells; format: cell-based, human
Text: A library of β-lactam analogs was screened for their ability to induce apoptosis. […] This is followed by preparation of cell lysates and measurement of apoptosis-specific caspase-3 activation (by cell-free caspase-3 activity assay) and PARP cleavage (by Western blotting).

[7] = tested on: MDA-MB-231 cells; conditions: MDA-MB-231, 50 μM, 48 hour
Protocol: (§1) To assay nuclear morphology, both the detached or remaining attached solid tumor cells were washed with PBS, fixed with 70% ethanol for 1 hour, and stained with Hoechst 33342 (50 μM) for 30 minutes. The nuclear morphology of cells was visualized by a fluorescence microscope.
(§2) Both attached and detached cell populations were then used for detection of apoptotic nuclear changes.

[8] = tested on: PCI-13 cells; conditions: PCI-13, 50 μM, 48 hour
Protocol: as §1, §2

[9] = tested on: PC-3 cells; conditions: PC-3, 50 μM, 48 hour
Protocol: as §1, §2

[10] = tested on: MCF-7 cells; conditions: MCF-7, 50 μM, 24 hour
Protocol: as §1, §2

`COC1C(=O)N(SC)C1c1ccccc1Cl` (racemic) [lactam 1] was tested, and the “DNA strand breaks (TUNEL)” value ([1]; 1 hour) was “did not induce DNA strand breaks”, the “cell population positive for DNA strand breaks (TUNEL)” value ([1]; 2 hour) was “more than half of the cell population” and the TUNEL-positive cells ([1]; 24 h) was 66%. The “inhibition of colony formation” value [2] was 91%, the “inhibition of 3H-thymidine incorporation” value ([3]; 20 μM, 2 h pre-incubation + 2 hour co-incubation) was 20% and the “inhibition of 3H-thymidine incorporation” value ([3]; 30 μM, 2 h pre-incubation + 2 hour co-incubation) was 45%. The “inhibition of 3H-thymidine incorporation” value ([3]; 40 μM, 2 h pre-incubation + 2 hour co-incubation) was 90%, the “inhibition of 3H-thymidine incorporation” value ([3]; 50 μM, added at the same time as 3H-thymidine, co-incubated 2 h) was roughly 70% and the “inhibition of 3H-thymidine incorporation” value ([3]; 50 μM, pre-incubation 2 to 8 h, then 2 hour with 3H-thymidine) was 95%. For the same compound, the “inhibition of 3H-thymidine incorporation” value ([3]; 50 or 60 μM, 2 h pre-incubation + 2 hour co-incubation) was roughly 100%, the IC50 ([3]; read-out: half-maximal inhibition value for incorporation of 3H-thymidine (IC50), intact Jurkat cells, total treatment 4 h) was 32 µM and the “decrease of cellular viability (MTT)” value [4] was 80%. For the same compound, the “apoptotic sub-G1 cell population” value ([5]; 2 to 4 hours) was 2%, the “increase in S phase population” value ([5]; 2 to 4 hours) was 2-3% and the “increase in S phase population” value ([5]; 6 to 12 hours) was “up to 13%”. For the same compound, the sub-G1 population ([5]; 6 to 12 hours) was 5-16%, the “increase in S phase population” value ([5]; 5 hours) was 21% and the sub-G1 apoptotic population ([5]; 5 hours) was 14%. The sub-G1 population ([5]; 24 h) was 30%, the “increase in S population” value ([5]; 24 hour) was 20% and the PARP cleavage ([6]; 10 μM, 24 h) was “induced apoptosis-specific PARP cleavage fragment p85”. For the same compound, the “levels of PARP cleavage fragment p85” value ([6]; 25 μM, 24 h) was “further increased”, the “time at which PARP cleavage was first detected” value ([6]; 30 μM) was 3 h and the “time at which PARP cleavage fragment p85 appears” value ([6]; 50 μM) was 4 h. The PARP cleavage ([6]; 50 μM, 8 hours) was “greatest potency”, the “level of PARP cleavage relative to that by 50 μM of lactam 47” value ([6]; 50 μM, 12 h) was roughly 50% and the PARP degradation ([6]; 50 μM, 24 h) was “PARP degradation was further increased”. The “p85 PARP fragment” value ([6]; 8 hours, 20 μM) was “Low levels”, the “p85 PARP fragment” value ([6]; 8 hours, 50 μM) was “significantly increased” and the “intact PARP protein and p85 PARP fragment” value ([6]; 8 hours, 60 μM) was “almost complete degradation”. The “p85 PARP fragment” value ([6]; 8 hours, 30 and 40 μM) was “further increased”, the “nuclear morphology of detached cells (Hoechst 33342)” value (“nuclear morphology of detached cells” for short) [7] was “apoptosis-specific nuclear morphology” and the “nuclear morphology of detached cells” value [8] was “apoptosis-specific nuclear morphology”. The “nuclear morphology of detached cells” value [9] was “apoptosis-specific nuclear morphology”, the cells detached [10] was roughly 50% and the “nuclear morphology of detached cells” value [10] was “typical apoptotic nuclear condensation and fragmentation”.
